The record followed here is patent US20120245123A1, “METHODS FOR IMPROVING BONE HEALTH IN INFANTS USING PREBIOTICS” (ABBOTT LABORATORIES, priority 2011, published 2012).

Experiment [1] has as its system femur, tibia and lumbar vertebra of rat offspring. Briefly: Micro-CT of trabecular and cortical bone architecture in rat offspring after maternal diet supplementation. The experiment is classed as in vivo, Sprague-Dawley rats. Here is the method: Fifty 10-week-old pregnant Sprague-Dawley rats at the eleventh day of gestation (Charles Rivers Laboratories, Orleans Cedex, France) are housed under standardized environmental conditions (22° C., relative humidity of 50%, artificial lighting on for 12 hours/day) and are given free access to deionized water during the test period. The rats are randomly divided into five groups of feeding (n=10/group): (1) Control Group (“Control”), who receives a standard purified rodent diet (SPRD); […] (3) Prebiotic group (“Prebiotic”), who receives the SPRD containing 7.5% of the total carbohydrate as inulin-type fructans (Synergy-1®, Orafti, Belgium); […] During their suckling period, the pups receive only the dam's milk. […] Sacrifices of rat pups are carried out at birth, weaning and at the end of the adolescence period. The whole bone mineral density (BMD) and bone mineral content (BMC) of the skeleton are measured at birth and at weaning by using a pDEXA densitometer (Norland Corp., Fort Atkinson, Wis., USA). In adolescent offspring, the determination of BMC and BMD are analyzed in isolated bones (femur, tibia and vertebrae). Determination of the trabecular architecture parameters (trabecular thickness, separation and number), bone length and bone volume fraction (BV/TV) is analyzed by Micro-computed tomography (micro-CT). Micro-CT analysis is carried out by the Bone & Joint Research Group (University of Southampton, UK) and cortical parameters are performed by SCANCO Medical AG (Bruttisellen, Switzerland). Micro-computed tomography (micro-CT) is a technique for the nondestructive assessment and analysis of the three-dimensional trabecular and cortical bone structural properties. Scanning with micro-CT can be achieved at resolutions as low as 5 μm, allowing for the determination of porosities and subtle modeling and remodeling events of the bone tissue. Furthermore, true three-dimensional image reconstructions permit the assessment of bone microarchitecture as a three dimensional structure, providing critical information to images collected through histomorphometry. In the present Example, femoral, tibia and vertebra cancellous bones are assessed using Metris (XTek) Benchtop 160Xi CT scanner (University of Southampton) and vertebra cortical bone is assessed using MicroCT-40 computed tomography system (Scanco Medical, Basserdorf, Switzerland). […] Micro-CT analysis also allows for the determination of various quality properties of the cortical bone. The bone fragility is influenced not only by the architecture but also by the tissue “quality”. The strength of a bone as an organ depends on the material properties of bone as a tissue. Stiffness, or the resistance of the whole bone to deformation by a load, is a key material property and requires a destructive mechanical technique if measurements are done in vivo. The non-destructive analysis of the volumetric bone mineral density of cortical bone (cortical vBMD) by micro CT has an approximately linear relationship with the stiffness of the cortical bone. Cortical thickness (C.Th) is one of the variables that helps to evaluate the modeling-derived changes provoked by growth. The cortical porosity (C.Sp) reflects the intracortical remodeling in the bone. Remodeling, that occurs in the surfaces of bone, could be enhanced if the pore size becomes larger and, therefore, with the increase of the cortical porosity. An increment on cortical porosity weakens the bone and decreases the bone strength. Results are expressed as mean±SEM, and the probability level at which the differences are considered significant is set at p<0.05. One-way ANOVA is used to evaluate differences attributable to the diet in the different markers, previously testing the homogeneity of variances by Levene's. A posteriori post hoc tests are carried out by the Dunnet test.

Experiment [2] deals with skeleton of rat offspring (whole body, femur, tibia, lumbar vertebra). In words: pDEXA densitometry of BMD and BMC in rat offspring after maternal diet supplementation. The experiment is classed as in vivo, Sprague-Dawley rats. The following applies: for lumbar vertebra BMC with respect to Control group / lumbar vertebra BMD with respect to Control group: adolescent offspring (90-day-old). The protocol: Fifty 10-week-old pregnant Sprague-Dawley rats at the eleventh day of gestation (Charles Rivers Laboratories, Orleans Cedex, France) are housed under standardized environmental conditions (22° C., relative humidity of 50%, artificial lighting on for 12 hours/day) and are given free access to deionized water during the test period. The rats are randomly divided into five groups of feeding (n=10/group): (1) Control Group (“Control”), who receives a standard purified rodent diet (SPRD); […] (3) Prebiotic group (“Prebiotic”), who receives the SPRD containing 7.5% of the total carbohydrate as inulin-type fructans (Synergy-1®, Orafti, Belgium); […] During their suckling period, the pups receive only the dam's milk. […] Sacrifices of rat pups are carried out at birth, weaning and at the end of the adolescence period. The whole bone mineral density (BMD) and bone mineral content (BMC) of the skeleton are measured at birth and at weaning by using a pDEXA densitometer (Norland Corp., Fort Atkinson, Wis., USA). In adolescent offspring, the determination of BMC and BMD are analyzed in isolated bones (femur, tibia and vertebrae). Determination of the trabecular architecture parameters (trabecular thickness, separation and number), bone length and bone volume fraction (BV/TV) is analyzed by Micro-computed tomography (micro-CT). Micro-CT analysis is carried out by the Bone & Joint Research Group (University of Southampton, UK) and cortical parameters are performed by SCANCO Medical AG (Bruttisellen, Switzerland). DEXA scan is a technique used in the clinical practice for the analysis of bone health. Two main bone properties can be measured by this technique: Bone Mineral Content (BMC) and areal Bone Mineral Density (BMD). BMC determines the mass of mineral present in the whole body or in the selected skeletal region. BMC changes reflect the result of the metabolic “mass” balance between bone formation and bone destruction. BMC represented relative to the projected bone area refers to BMD. BMD represents the […] present in the bone region studied. […] The manufacturer's software for research in small animals calculates BMC and BMD for the isolated bone. Femur is measured from the femoral neck to the knee joint. Tibia is measured from the knee joint to the joint between tibia and calcaneus, also including fibula. […] Results are expressed as mean±SEM, and the probability level at which the differences are considered significant is set at p<0.05. One-way ANOVA is used to evaluate differences attributable to the diet in the different markers, previously testing the homogeneity of variances by Levene's. A posteriori post hoc tests are carried out by the Dunnet test.

[3] abbreviates: adolescent offspring (90-day-old).

Turning to `O=C([O-])[O-].[Ca+2]` [Calcium, calcium carbonate], in experiment [1] (setting [3]), the “vertebra BV/TV enhanced in comparison with Control group” value was determined as 22%; the “vertebra cortical porosity, effect” value is “decrease”; the “vertebra cortical vBMD, effect” value is on record as “increase”; the “vertebra trabecular separation respective to Control group” value is “significant decrease”. For the same compound, in experiment [1] (setting [3]), the “vertebra trabecular thickness enhanced in comparison with Control group” value is reported as 17% and the “vertebrae cortical thickness, effect” value was “without significantly affecting”. Also, in experiment [1] (pups at delivery), the “trabecular number of femur and tibia respective to Control group” value is given as “greater”; the “trabecular separation of femur and tibia respective to Control group” value is listed as “decrease in the trabecular separation, although statistical differences are not achieved”; the “trabecular thickness of femur and tibia respective to Control group” value is “lower”. Besides, in experiment [1] (pups at weaning), the “increase in vertebra trabecular thickness respective to Control group” value is listed as roughly 30%, the “vertebra BV/TV ratio respective to Control group” value was “statistically different” and the “vertebra trabecular separation respective to Control group” value is on record as “statistically different”. Also, in experiment [2], the “lumbar vertebra BMC with respect to Control group” value is recorded as “no differences” and the “lumbar vertebra BMD with respect to Control group” value is given as “no differences”.

Take Vitamin D: in experiment [1] (setting [3]), the “cortical features of the vertebra” value was “does not show any improvement”; the “vertebra BV/TV, effect versus Control group” value is given as “No effect”; the “vertebra trabecular thickness, effect versus Control group” value is “No effect”. In experiment [2], the “lumbar vertebra BMC with respect to Control group” value is reported as “no differences” and the “lumbar vertebra BMD with respect to Control group” value is reported as “no differences”. Besides, the “whole body BMC relative to Control group” value in experiment [2] (pups at weaning) is reported as “lower”.
